The source of these data is US12097241B2, “Methods of treating kidney failure, and/or improving or stablizing renal function using modified relaxin polypeptides” (BRISTOL-MYERS SQUIBB COMPANY, priority 2017, dated 2024).

As usually defined, the EC50 is the concentration giving half of the maximal effect.

SMILES strings stand for the structures.

The assay concerns the target T1, human RXFP1 receptor (Homo sapiens, UniProt Q9HBX9).
T1 construct: expressed in transfected cells
T1 sequence (Q9HBX9 1-757): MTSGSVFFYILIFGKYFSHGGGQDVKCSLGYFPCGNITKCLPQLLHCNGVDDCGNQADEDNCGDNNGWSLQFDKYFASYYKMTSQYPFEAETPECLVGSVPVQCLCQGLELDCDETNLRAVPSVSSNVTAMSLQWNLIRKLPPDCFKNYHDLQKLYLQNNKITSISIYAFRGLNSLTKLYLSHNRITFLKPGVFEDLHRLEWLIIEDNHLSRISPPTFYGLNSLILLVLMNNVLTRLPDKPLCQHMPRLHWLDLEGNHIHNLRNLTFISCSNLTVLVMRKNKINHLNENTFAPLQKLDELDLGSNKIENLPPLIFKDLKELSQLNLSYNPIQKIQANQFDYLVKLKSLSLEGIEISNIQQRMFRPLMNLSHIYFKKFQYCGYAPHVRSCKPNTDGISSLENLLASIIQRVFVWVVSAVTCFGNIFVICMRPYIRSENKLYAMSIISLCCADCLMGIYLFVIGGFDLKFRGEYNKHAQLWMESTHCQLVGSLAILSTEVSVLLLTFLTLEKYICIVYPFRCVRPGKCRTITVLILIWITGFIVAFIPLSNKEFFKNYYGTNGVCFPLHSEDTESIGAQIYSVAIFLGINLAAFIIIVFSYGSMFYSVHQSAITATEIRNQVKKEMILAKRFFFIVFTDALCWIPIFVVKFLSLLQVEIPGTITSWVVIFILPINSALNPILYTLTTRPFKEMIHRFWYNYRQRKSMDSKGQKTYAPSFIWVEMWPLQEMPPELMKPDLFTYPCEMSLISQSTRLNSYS
Nature of the assay: Intracellular cAMP accumulation assay. Format: cell-based. On the technique in general: Changes in cAMP serve as a functional read-out for many G protein-coupled receptors.
`CC[C@H](C)[C@@H]1NC(=O)[C@H](C)NC(=O)[C@H]([C@@H](C)CC)NC(=O)[C@H](CCC(N)=O)NC(=O)[C@H](C)NC(=O)[C@H](CCCNC(=N)N)NC(=O)[C@H](C(C)C)NC(=O)[C@H](CC(C)C)NC(=O)[C@H](CCC(=O)O)NC(=O)[C@H](CCCNC(=N)N)NC(=O)CNC(=O)[C@@H](NC(=O)[C@H](CC(C)C)NC(=O)[C@H](CCCCN)NC(=O)[C@@H](NC(=O)[C@@H](NC(=O)[C@H](CCC(=O)O)NC(=O)[C@H](CCC(=O)O)NC(=O)[C@H](CCSC)NC(=O)[C@H](Cc2c[nH]c3ccccc23)NC(=O)[C@H](CO)NC(=O)[C@H](C)N)C(C)C)[C@@H](C)CC)CSSC[C@@H]2NC(=O)[C@@H](NC(=O)[C@H](CCCCN)NC(=O)[C@H](CC(N)=O)NC(=O)[C@H](C)NC(=O)[C@H](CC(C)C)NC(=O)[C@H](C)NC(=O)[C@H](CO)NC(=O)[C@H](Cc3ccc(O)cc3)NC(=O)[C@H](CC(C)C)NC(=O)[C@@H](N)Cc3ccc(/C(C)=N/OCCNC(=O)[C@H](CCCCN)NC(=O)CNC(=O)[C@@H]4CCCN4C(=O)CC[C@H](NC(=O)CCCCCCCCCCCCCC(=O)O)C(=O)O)cc3)CSSC[C@H](NC(=O)CNC(=O)[C@H](C(C)C)NC(=O)[C@H](Cc3c[nH]cn3)NC2=O)C(=O)N[C@@H]([C@@H](C)O)C(=O)N[C@@H](CCCCN)C(=O)N[C@@H](CCCNC(=N)N)C(=O)N[C@@H](CO)C(=O)N[C@@H](CC(C)C)C(=O)N[C@@H](C)C(=O)N[C@@H](CCCNC(=N)N)C(=O)N[C@@H](Cc2ccccc2)C(=O)N[C@H](C(=O)O)CSSC[C@@H](C(=O)NCC(=O)N[C@@H](CCSC)C(=O)N[C@@H](CO)C(=O)N[C@H](C(=O)N[C@@H](Cc2c[nH]c3ccccc23)C(=O)N[C@@H](CO)C(=O)O)[C@@H](C)O)NC1=O` [AQ1-KGP-Glu^γ-C14-COOH] registered a 50% effective concentration (EC50) of 0.27 nM.
As for `CC[C@H](C)[C@@H]1NC(=O)[C@H](C)NC(=O)[C@H]([C@@H](C)CC)NC(=O)[C@H](CCC(N)=O)NC(=O)[C@H](C)NC(=O)[C@H](CCCNC(=N)N)NC(=O)[C@H](C(C)C)NC(=O)[C@H](CC(C)C)NC(=O)[C@H](CCC(=O)O)NC(=O)[C@H](CCCNC(=N)N)NC(=O)CNC(=O)[C@@H](NC(=O)[C@H](CC(C)C)NC(=O)[C@H](CCCCN)NC(=O)[C@@H](NC(=O)[C@@H](NC(=O)[C@H](CCC(=O)O)NC(=O)[C@H](CCC(=O)O)NC(=O)[C@H](CCSC)NC(=O)[C@H](Cc2c[nH]c3ccccc23)NC(=O)[C@H](CO)NC(=O)[C@H](C)N)C(C)C)[C@@H](C)CC)CSSC[C@@H]2NC(=O)[C@@H](NC(=O)[C@H](CCCCN)NC(=O)[C@H](CC(N)=O)NC(=O)[C@H](C)NC(=O)[C@H](CC(C)C)NC(=O)[C@H](C)NC(=O)[C@H](CO)NC(=O)[C@H](Cc3ccc(O)cc3)NC(=O)[C@H](CC(C)C)NC(=O)[C@@H](N)Cc3ccc(C(C)=NOCCNC(=O)[C@H](CCCCN)NC(=O)[C@H](CCCCN)NC(=O)CC[C@H](NC(=O)CCCCCCCCCCCCC(=O)O)C(=O)O)cc3)CSSC[C@H](NC(=O)CNC(=O)[C@H](C(C)C)NC(=O)[C@H](Cc3c[nH]cn3)NC2=O)C(=O)N[C@@H]([C@@H](C)O)C(=O)N[C@@H](CCCCN)C(=O)N[C@@H](CCCNC(=N)N)C(=O)N[C@@H](CO)C(=O)N[C@@H](CC(C)C)C(=O)N[C@@H](C)C(=O)N[C@@H](CCCNC(=N)N)C(=O)N[C@@H](Cc2ccccc2)C(=O)N[C@H](C(=O)O)CSSC[C@@H](C(=O)NCC(=O)N[C@@H](CCSC)C(=O)N[C@@H](CO)C(=O)N[C@H](C(=O)N[C@@H](Cc2c[nH]c3ccccc23)C(=O)N[C@@H](CO)C(=O)O)[C@@H](C)O)NC1=O` [AQ1-KK-Glu^γ-C13-COOH], the midpoint of the response, the EC50, lay at 0.1 nM.
`CC[C@H](C)[C@@H]1NC(=O)[C@H](C)NC(=O)[C@H]([C@@H](C)CC)NC(=O)[C@H](CCC(N)=O)NC(=O)[C@H](C)NC(=O)[C@H](CCCNC(=N)N)NC(=O)[C@H](C(C)C)NC(=O)[C@H](CC(C)C)NC(=O)[C@H](CCC(=O)O)NC(=O)[C@H](CCCNC(=N)N)NC(=O)CNC(=O)[C@@H](NC(=O)[C@H](CC(C)C)NC(=O)[C@H](CCCCN)NC(=O)[C@@H](NC(=O)[C@@H](NC(=O)[C@H](CCC(=O)O)NC(=O)[C@H](CCC(=O)O)NC(=O)[C@H](CCSC)NC(=O)[C@H](Cc2c[nH]c3ccccc23)NC(=O)[C@H](CO)NC(=O)[C@H](C)N)C(C)C)[C@@H](C)CC)CSSC[C@@H]2NC(=O)[C@@H](NC(=O)[C@H](CCCCN)NC(=O)[C@H](CC(N)=O)NC(=O)[C@H](C)NC(=O)[C@H](CC(C)C)NC(=O)[C@H](C)NC(=O)[C@H](CO)NC(=O)[C@H](Cc3ccc(O)cc3)NC(=O)[C@H](CC(C)C)NC(=O)[C@@H](N)Cc3ccc(C(C)=NOCCNC(=O)[C@H](CCCCN)NC(=O)[C@H](CCCCN)NC(=O)[C@H](CO)NC(=O)[C@H](C)NC(=O)CNC(=O)[C@H](CO)NC(=O)[C@H](C)NC(=O)CNC(=O)CC[C@H](NC(=O)CCCCCCCCCCCCC(=O)O)C(=O)O)cc3)CSSC[C@H](NC(=O)CNC(=O)[C@H](C(C)C)NC(=O)[C@H](Cc3c[nH]cn3)NC2=O)C(=O)N[C@@H]([C@@H](C)O)C(=O)N[C@@H](CCCCN)C(=O)N[C@@H](CCCNC(=N)N)C(=O)N[C@@H](CO)C(=O)N[C@@H](CC(C)C)C(=O)N[C@@H](C)C(=O)N[C@@H](CCCNC(=N)N)C(=O)N[C@@H](Cc2ccccc2)C(=O)N[C@H](C(=O)O)CSSC[C@@H](C(=O)NCC(=O)N[C@@H](CCSC)C(=O)N[C@@H](CO)C(=O)N[C@H](C(=O)N[C@@H](Cc2c[nH]c3ccccc23)C(=O)N[C@@H](CO)C(=O)O)[C@@H](C)O)NC1=O` [AQ1-KKSAGSAG-Glu^γ-C13-COOH] gave an EC50 of 0.27 nM.
`CC[C@H](C)[C@@H]1NC(=O)[C@H](C)NC(=O)[C@H]([C@@H](C)CC)NC(=O)[C@H](CCC(N)=O)NC(=O)[C@H](C)NC(=O)[C@H](CCCNC(=N)N)NC(=O)[C@H](C(C)C)NC(=O)[C@H](CC(C)C)NC(=O)[C@H](CCC(=O)O)NC(=O)[C@H](CCCNC(=N)N)NC(=O)CNC(=O)[C@@H](NC(=O)[C@H](CC(C)C)NC(=O)[C@H](CCCCN)NC(=O)[C@@H](NC(=O)[C@@H](NC(=O)[C@H](CCC(=O)O)NC(=O)[C@H](CCC(=O)O)NC(=O)[C@H](CCSC)NC(=O)[C@H](Cc2c[nH]c3ccccc23)NC(=O)[C@H](CO)NC(=O)[C@H](C)N)C(C)C)[C@@H](C)CC)CSSC[C@@H]2NC(=O)[C@@H](NC(=O)[C@H](CCCCN)NC(=O)[C@H](CC(N)=O)NC(=O)[C@H](C)NC(=O)[C@H](CC(C)C)NC(=O)[C@H](C)NC(=O)[C@H](CO)NC(=O)[C@H](Cc3ccc(O)cc3)NC(=O)[C@H](CC(C)C)NC(=O)[C@@H](N)Cc3ccc(C(C)=NOCCNC(=O)[C@H](CCCCN)NC(=O)[C@H](CCCCN)NC(=O)[C@H](CO)NC(=O)CNC(=O)CNC(=O)[C@H](CO)NC(=O)CNC(=O)CNC(=O)[C@H](CCC(=O)O)NC(=O)CCCCCCCCCCCCC(=O)O)cc3)CSSC[C@H](NC(=O)CNC(=O)[C@H](C(C)C)NC(=O)[C@H](Cc3c[nH]cn3)NC2=O)C(=O)N[C@@H]([C@@H](C)O)C(=O)N[C@@H](CCCCN)C(=O)N[C@@H](CCCNC(=N)N)C(=O)N[C@@H](CO)C(=O)N[C@@H](CC(C)C)C(=O)N[C@@H](C)C(=O)N[C@@H](CCCNC(=N)N)C(=O)N[C@@H](Cc2ccccc2)C(=O)N[C@H](C(=O)O)CSSC[C@@H](C(=O)NCC(=O)N[C@@H](CCSC)C(=O)N[C@@H](CO)C(=O)N[C@H](C(=O)N[C@@H](Cc2c[nH]c3ccccc23)C(=O)N[C@@H](CO)C(=O)O)[C@@H](C)O)NC1=O` [AQ1-KKSGGSGG-Glu^α-C13-COOH]: a half-maximal effect (EC50) was put at 0.27 nM.
For `CC[C@H](C)[C@@H]1NC(=O)[C@H](C)NC(=O)[C@H]([C@@H](C)CC)NC(=O)[C@H](CCC(N)=O)NC(=O)[C@H](C)NC(=O)[C@H](CCCNC(=N)N)NC(=O)[C@H](C(C)C)NC(=O)[C@H](CC(C)C)NC(=O)[C@H](CCC(=O)O)NC(=O)[C@H](CCCNC(=N)N)NC(=O)CNC(=O)[C@@H](NC(=O)[C@H](CC(C)C)NC(=O)[C@H](CCCCN)NC(=O)[C@@H](NC(=O)[C@@H](NC(=O)[C@H](CCC(=O)O)NC(=O)[C@H](CCC(=O)O)NC(=O)[C@H](CCSC)NC(=O)[C@H](Cc2c[nH]c3ccccc23)NC(=O)[C@H](CO)NC(=O)[C@H](C)N)C(C)C)[C@@H](C)CC)CSSC[C@@H]2NC(=O)[C@@H](NC(=O)[C@H](CCCCN)NC(=O)[C@H](CC(N)=O)NC(=O)[C@H](C)NC(=O)[C@H](CC(C)C)NC(=O)[C@H](C)NC(=O)[C@H](CO)NC(=O)[C@H](Cc3ccc(O)cc3)NC(=O)[C@H](CC(C)C)NC(=O)[C@@H](N)Cc3ccc(C(C)=NOCCNC(=O)[C@H](CCCCN)NC(=O)[C@H](CCCCN)NC(=O)[C@H](CO)NC(=O)CNC(=O)CNC(=O)[C@H](CO)NC(=O)CNC(=O)CNC(=O)CC[C@H](NC(=O)CCCCCCCCCCCCC(=O)O)C(=O)O)cc3)CSSC[C@H](NC(=O)CNC(=O)[C@H](C(C)C)NC(=O)[C@H](Cc3c[nH]cn3)NC2=O)C(=O)N[C@@H]([C@@H](C)O)C(=O)N[C@@H](CCCCN)C(=O)N[C@@H](CCCNC(=N)N)C(=O)N[C@@H](CO)C(=O)N[C@@H](CC(C)C)C(=O)N[C@@H](C)C(=O)N[C@@H](CCCNC(=N)N)C(=O)N[C@@H](Cc2ccccc2)C(=O)N[C@H](C(=O)O)CSSC[C@@H](C(=O)NCC(=O)N[C@@H](CCSC)C(=O)N[C@@H](CO)C(=O)N[C@H](C(=O)N[C@@H](Cc2c[nH]c3ccccc23)C(=O)N[C@@H](CO)C(=O)O)[C@@H](C)O)NC1=O` [AQ1-KKSGGSGG-Glu^γ-C13-COOH], the midpoint of the response, the EC50, lay at 0.34 nM.
